Patent publication US11802128B2, “Azetidine and pyrrolidine PARP1 inhibitors and uses thereof” (Xinthera, Inc., priority 2021, dated 2023)

Tests used:
[1] = test system: DLD-1 BRCA2(−/−) cells; experiment: Cell growth inhibition assay (CellTiter-Glo cell viability, 7 days); format: cell-based; conditions: Homo sapiens, 168 h
How it was run: (§1)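 Cells were seeded at 50 (DLD-1 parental), 200 (DLD-1 BRCA2−/−) or 500 (MDA-MB-436) cells/well onto 1:3 compound dilutions, top final 10 or 30 μM. Culture ran 7 days at 37 °C, 5% CO2. ATP was read by CellTiter-Glo 2.0, and IC50 was fitted from growth inhibition.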

[2] = test system: DLD-1 parental cells; experiment: as above; format: cell-based; conditions: Homo sapiens, 168 h
How it was run: as §1

[3] = test system: MDA-MB-436 (mutated BRCA1) cells; experiment: as above; format: cell-based; conditions: Homo sapiens, 168 h, MDA-MB-436, 7 days
How it was run: as §1

[4] = target: PARP1 (Homo sapiens (Human), UniProt P09874); experiment: Biochemical fluorescent polarization (FP) assay, displacement of PARPi-FL; format: binding; conditions: 20 nM protein, 3 nM PARPi-FL, 4 h at room temperature
Protocol: (§2) The assay was performed utilizing the following method:
(§3) 100% DMSO was used for the high (with protein) and low (without protein) control samples. 20 nL of compound or DMSO alone was added to individual assay plate wells.
(§4) PARP1 and PARP2 protein were expressed, purified, and diluted in assay buffer containing 50 mM Tris pH 8.0, 0.001% Triton X-100, 10 mM MgCl2, 150 mM NaCl to a final concentration of 20 nM. The PARPi-FL was then added at a final concentration of 3 nM.
(§5) The assay plate is centrifuged at 1000 rpm for 1 min and incubated for 4 h at room temperature.
(§6) The fluorescent polarization is read using an Envision plate reader using the following settings: […]

[5] = target: PARP2 (Homo sapiens (Human), UniProt Q9UGN5); experiment: as above; format: binding; conditions: 20 nM protein, 3 nM PARPi-FL, 4 h at room temperature; read-out: IC50 FP PARP2
Protocol: as §2, §3, §4, §5, §6

Sequence of PARP2 (Q9UGN5 whole entry): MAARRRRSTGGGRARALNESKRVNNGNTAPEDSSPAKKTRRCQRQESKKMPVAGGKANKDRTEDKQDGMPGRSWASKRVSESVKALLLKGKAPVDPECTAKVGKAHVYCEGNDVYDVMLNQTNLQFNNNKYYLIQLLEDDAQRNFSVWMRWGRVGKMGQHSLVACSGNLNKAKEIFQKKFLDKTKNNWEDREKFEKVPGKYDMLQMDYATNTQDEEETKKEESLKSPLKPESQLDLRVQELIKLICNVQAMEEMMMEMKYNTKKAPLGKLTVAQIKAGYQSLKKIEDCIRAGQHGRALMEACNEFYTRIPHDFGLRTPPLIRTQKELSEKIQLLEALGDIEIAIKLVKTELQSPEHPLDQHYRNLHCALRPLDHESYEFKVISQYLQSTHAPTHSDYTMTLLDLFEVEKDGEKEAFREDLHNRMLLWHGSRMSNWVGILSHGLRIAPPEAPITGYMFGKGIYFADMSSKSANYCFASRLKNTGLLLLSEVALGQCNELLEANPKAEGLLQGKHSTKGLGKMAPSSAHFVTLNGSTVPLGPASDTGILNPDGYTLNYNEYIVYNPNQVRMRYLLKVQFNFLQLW
Sequence of PARP1 (P09874 whole entry): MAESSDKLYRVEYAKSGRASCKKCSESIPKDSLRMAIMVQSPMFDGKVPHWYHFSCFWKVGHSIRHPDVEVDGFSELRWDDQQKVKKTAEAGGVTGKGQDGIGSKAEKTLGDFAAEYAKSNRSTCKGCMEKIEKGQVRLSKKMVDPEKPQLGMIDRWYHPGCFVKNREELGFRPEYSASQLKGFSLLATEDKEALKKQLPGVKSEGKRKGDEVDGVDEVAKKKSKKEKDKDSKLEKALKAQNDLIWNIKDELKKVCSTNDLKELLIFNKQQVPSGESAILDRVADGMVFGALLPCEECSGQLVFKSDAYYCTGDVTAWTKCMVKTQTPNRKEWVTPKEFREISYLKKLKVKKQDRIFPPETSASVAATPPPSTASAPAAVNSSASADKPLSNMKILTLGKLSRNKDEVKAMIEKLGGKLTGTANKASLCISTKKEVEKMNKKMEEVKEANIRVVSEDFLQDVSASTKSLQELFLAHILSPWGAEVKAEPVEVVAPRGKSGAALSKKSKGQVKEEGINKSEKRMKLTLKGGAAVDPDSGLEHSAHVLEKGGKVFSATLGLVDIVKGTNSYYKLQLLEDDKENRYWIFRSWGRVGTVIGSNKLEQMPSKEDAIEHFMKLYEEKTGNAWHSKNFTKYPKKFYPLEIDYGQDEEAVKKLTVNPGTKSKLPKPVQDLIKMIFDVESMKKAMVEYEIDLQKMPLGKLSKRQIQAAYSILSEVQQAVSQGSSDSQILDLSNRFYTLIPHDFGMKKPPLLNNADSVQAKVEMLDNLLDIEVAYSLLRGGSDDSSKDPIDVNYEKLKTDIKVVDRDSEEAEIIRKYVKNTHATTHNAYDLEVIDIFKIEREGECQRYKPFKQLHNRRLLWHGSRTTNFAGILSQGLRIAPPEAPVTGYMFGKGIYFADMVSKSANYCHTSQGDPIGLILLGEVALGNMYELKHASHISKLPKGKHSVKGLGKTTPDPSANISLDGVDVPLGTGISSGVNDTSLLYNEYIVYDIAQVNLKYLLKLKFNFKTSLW

Row | Structure (SMILES) | EC50 [1] | EC50 [3] | IC50 [4] | IC50 [5] | EC50 [2]
1 | C[C@@H]1[C@@H](Oc2ccc(C(=O)NC3CC3)nc2)CN1Cc1cnc2cc(Cl)c(=O)[nH]c2c1 [Example 76, 5-{[(2R,3S)-1-[(7-chloro-6-oxo-5H-1,5-naphthyridin-3-yl)methyl]-2-methylazetidin-3-yl]oxy}-N-cyclopropylpyridine-2-carboxamide] | 1.4 nM | 1.1 nM | 2.8 nM | 8700 nM | –
2 | CNC(=O)c1ccc(O[C@H]2CN(Cc3cnc4cc(Cl)c(=O)[nH]c4c3)[C@@H]2C)cn1 [Example 77] | 3.8 nM | 1.8 nM | 3.8 nM | > 100000 nM | –
3 | C[C@@H]1[C@@H](Oc2ccc(C(=O)NC3CC3)nc2)CN1Cc1cnc2c(c1)[nH]c(=O)c1ccoc12 [Example 84] | 3 nM | 1.4 nM | 8.8 nM | 48000 nM | –
4 | CNC(=O)c1ccc(O[C@H]2CN(Cc3ccc4nc(C)c(=O)[nH]c4c3F)[C@@H]2C)cn1 [Example 91] | 23 nM | 27 nM | 11 nM | > 100000 nM | –

More lines, main results first:

Row | EC50 [1] | EC50 [3] | IC50 [4] | IC50 [5] | Structure (SMILES) | EC50 [2]
5 | 3.3 nM | 1.6 nM | 4.2 nM | > 10000 nM | CCc1cc2ncc(CN3CC[C@@H](Oc4ccc(C(=O)NC)nc4)C3)cc2[nH]c1=O [Example 2, 5-{[(3R)-1-[(7-ethyl-6-oxo-5H-1,5-naphthyridin-3-yl)methyl]pyrrolidin-3-yl]oxy}-N-methylpyridine-2-carboxamide] | > 30000 nM
6 | 1.2 nM | 0.72 nM | 4 nM | 5200 nM | C[C@@H]1[C@@H](Oc2ccc(C(=O)NC3CC3)nc2)CN1Cc1cnc2cc(C(F)F)c(=O)[nH]c2c1 [Example 75, N-cyclopropyl-5-{[(2R,3S)-1-{[7-(difluoromethyl)-6-oxo-5H-1,5-naphthyridin-3-yl]methyl}-2-methylazetidin-3-yl]oxy}pyridine-2-carboxamide] | –
7 | 4.3 nM | 1.8 nM | 3.8 nM | 5300 nM | Cc1cc2ncc(CN3C[C@H](Oc4ccc(C(=O)NC5CC(F)(F)C5)nc4)[C@H]3C)cc2[nH]c1=O [Example 80] | –
8 | 3.1 nM | 2.1 nM | 4.5 nM | 6800 nM | Cc1cc2ncc(CN3C[C@H](Oc4ccc(C(=O)N[C@H]5C[C@H](F)C5)nc4)[C@H]3C)cc2[nH]c1=O [Example 82] | –
